Assays:
[1] = system: Phosphatidylinositol 4,5-bisphosphate 3-kinase catalytic subunit alpha isoform (Homo sapiens), P42336 [H1047Y]; experiment: Inhibition of PIK3CA H1047Y mutant (unknown origin) assessed as residual activity at 100 nM by KINOMEscan analysis relative to control
[2] = biological target: T1, Megakaryocyte-associated tyrosine-protein kinase (Homo sapiens) (UniProt P42679); experiment: Inhibition of CTK (unknown origin) assessed as residual activity at 100 nM by KINOMEscan analysis relative to control
T1 sequence (whole entry): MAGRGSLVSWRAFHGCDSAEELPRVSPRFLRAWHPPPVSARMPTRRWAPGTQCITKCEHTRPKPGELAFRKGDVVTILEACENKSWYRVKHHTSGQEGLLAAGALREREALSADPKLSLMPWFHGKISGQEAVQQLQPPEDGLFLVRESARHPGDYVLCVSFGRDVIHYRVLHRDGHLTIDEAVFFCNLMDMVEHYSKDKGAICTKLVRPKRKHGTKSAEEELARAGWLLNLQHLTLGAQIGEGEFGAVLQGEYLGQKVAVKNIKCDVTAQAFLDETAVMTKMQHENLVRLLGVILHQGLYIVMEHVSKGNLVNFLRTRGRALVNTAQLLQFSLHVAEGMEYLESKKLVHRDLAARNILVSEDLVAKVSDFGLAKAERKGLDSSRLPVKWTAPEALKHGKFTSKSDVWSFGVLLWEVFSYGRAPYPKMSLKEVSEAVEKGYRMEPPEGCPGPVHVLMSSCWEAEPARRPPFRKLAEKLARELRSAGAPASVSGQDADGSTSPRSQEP

[3] = biological target: Wee1-like protein kinase 2 (Homo sapiens) (UniProt P0C1S8); experiment: Inhibition of WEE2 (unknown origin) assessed as residual activity at 100 nM by KINOMEscan analysis relative to control
[4] = biological target: T2, Serine/threonine-protein kinase Nek1 (Homo sapiens) (UniProt Q96PY6); experiment: Inhibition of NEK1 (unknown origin) assessed as residual activity at 100 nM by KINOMEscan analysis relative to control
T2 sequence (whole entry): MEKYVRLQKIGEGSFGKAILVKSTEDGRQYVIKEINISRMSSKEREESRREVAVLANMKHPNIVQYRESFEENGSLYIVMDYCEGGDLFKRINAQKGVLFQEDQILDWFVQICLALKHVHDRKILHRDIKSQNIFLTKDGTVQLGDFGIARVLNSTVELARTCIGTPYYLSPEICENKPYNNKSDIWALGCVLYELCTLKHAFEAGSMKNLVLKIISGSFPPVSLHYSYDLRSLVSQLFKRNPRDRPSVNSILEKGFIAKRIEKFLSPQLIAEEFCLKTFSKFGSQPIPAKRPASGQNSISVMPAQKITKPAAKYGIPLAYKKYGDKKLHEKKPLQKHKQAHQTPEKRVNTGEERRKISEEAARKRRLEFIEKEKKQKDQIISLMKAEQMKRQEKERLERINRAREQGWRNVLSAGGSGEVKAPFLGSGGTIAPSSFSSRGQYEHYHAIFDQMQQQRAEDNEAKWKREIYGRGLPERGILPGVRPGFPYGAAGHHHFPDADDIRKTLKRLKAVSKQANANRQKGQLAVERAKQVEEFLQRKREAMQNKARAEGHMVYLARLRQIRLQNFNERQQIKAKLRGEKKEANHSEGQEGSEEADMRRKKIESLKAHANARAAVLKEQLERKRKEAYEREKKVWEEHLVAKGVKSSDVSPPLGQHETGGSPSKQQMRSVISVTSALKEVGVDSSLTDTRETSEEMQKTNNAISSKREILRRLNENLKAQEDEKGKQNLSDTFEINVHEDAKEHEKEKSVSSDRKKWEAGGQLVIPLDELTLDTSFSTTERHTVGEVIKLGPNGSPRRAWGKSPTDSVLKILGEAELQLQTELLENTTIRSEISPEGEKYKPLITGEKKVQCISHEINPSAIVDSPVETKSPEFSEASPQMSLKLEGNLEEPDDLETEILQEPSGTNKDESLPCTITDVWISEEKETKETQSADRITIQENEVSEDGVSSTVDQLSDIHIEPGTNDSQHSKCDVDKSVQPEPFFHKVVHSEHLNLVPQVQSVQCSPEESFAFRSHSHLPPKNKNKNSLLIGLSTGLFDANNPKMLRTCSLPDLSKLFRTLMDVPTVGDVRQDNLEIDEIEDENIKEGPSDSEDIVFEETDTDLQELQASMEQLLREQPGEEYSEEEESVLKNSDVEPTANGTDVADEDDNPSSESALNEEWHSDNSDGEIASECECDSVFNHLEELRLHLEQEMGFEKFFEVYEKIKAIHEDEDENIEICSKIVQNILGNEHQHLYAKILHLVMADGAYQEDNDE

[5] = biological target: Ribosomal protein S6 kinase alpha-5 (Homo sapiens) (UniProt O75582); experiment: Inhibition of N-terminal RPS6KA5 kinetic domain 1 (unknown origin) assessed as residual activity at 100 nM by KINOMEscan analysis relative to control
[6] = biological target: Serine/threonine-protein kinase tousled-like 2 (Homo sapiens) (UniProt Q86UE8); experiment: Inhibition of TLK2 (unknown origin) assessed as residual activity at 100 nM by KINOMEscan analysis relative to control
[7] = biological target: Mitogen-activated protein kinase kinase kinase kinase 5 (Homo sapiens) (UniProt Q9Y4K4); experiment: Inhibition of MAP4K5 (unknown origin) assessed as residual activity at 100 nM by KINOMEscan analysis relative to control
[8] = biological target: Activin receptor type-2A (Homo sapiens) (UniProt P27037); experiment: Inhibition of ACVR2A (unknown origin) assessed as residual activity at 100 nM by KINOMEscan analysis relative to control
[9] = biological target: Protein kinase C delta type (Homo sapiens) (UniProt Q05655); experiment: Inhibition of PRKCD (unknown origin) assessed as residual activity at 100 nM by KINOMEscan analysis relative to control
Chain of Protein kinase C delta type (Homo sapiens) (Q05655 whole entry, looked up): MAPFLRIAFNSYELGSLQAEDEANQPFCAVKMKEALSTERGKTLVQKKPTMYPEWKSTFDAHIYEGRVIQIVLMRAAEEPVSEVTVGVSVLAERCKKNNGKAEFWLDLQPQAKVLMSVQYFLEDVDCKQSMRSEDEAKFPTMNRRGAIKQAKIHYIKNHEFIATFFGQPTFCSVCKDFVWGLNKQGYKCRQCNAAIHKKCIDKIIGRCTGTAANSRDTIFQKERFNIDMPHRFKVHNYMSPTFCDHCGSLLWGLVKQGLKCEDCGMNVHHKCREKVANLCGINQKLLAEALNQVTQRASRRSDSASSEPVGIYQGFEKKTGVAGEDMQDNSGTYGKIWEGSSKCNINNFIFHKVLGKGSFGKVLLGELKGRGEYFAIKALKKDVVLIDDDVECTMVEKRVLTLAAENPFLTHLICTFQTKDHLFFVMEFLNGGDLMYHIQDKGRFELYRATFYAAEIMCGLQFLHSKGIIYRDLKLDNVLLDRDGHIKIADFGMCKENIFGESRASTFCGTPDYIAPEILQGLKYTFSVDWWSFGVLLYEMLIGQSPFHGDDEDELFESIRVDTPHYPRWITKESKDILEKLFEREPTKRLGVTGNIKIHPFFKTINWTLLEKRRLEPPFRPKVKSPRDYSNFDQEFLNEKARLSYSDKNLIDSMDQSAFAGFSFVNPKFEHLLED

Chain of Wee1-like protein kinase 2 (Homo sapiens) (P0C1S8 whole entry, looked up): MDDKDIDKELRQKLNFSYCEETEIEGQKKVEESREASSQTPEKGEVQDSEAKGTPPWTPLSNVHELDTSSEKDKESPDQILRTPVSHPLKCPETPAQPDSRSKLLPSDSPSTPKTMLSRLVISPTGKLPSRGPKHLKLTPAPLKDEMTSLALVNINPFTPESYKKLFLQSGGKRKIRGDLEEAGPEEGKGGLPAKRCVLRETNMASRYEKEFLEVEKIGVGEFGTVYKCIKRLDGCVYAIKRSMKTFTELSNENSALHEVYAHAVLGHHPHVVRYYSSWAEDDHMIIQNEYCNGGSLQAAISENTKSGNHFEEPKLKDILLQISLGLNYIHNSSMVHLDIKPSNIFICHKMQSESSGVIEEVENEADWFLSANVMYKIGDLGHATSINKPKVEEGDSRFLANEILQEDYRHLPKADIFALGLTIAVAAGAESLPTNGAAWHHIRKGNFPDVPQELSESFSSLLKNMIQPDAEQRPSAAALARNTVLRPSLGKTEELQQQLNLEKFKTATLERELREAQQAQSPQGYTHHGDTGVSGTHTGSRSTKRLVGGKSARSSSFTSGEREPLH
Chain of Activin receptor type-2A (Homo sapiens) (P27037 whole entry): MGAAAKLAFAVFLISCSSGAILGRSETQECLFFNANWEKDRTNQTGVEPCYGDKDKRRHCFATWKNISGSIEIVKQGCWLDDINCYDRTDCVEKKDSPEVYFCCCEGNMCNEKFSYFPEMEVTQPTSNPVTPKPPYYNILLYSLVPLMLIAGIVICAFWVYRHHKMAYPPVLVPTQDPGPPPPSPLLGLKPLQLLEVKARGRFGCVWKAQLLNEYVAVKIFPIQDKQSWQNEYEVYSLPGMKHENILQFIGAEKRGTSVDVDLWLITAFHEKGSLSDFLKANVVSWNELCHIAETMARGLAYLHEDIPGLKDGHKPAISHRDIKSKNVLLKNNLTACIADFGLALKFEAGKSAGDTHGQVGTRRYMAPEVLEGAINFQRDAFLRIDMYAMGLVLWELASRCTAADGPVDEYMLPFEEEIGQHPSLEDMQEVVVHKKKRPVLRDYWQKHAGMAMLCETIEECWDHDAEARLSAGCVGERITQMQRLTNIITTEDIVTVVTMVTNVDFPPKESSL
Chain of Serine/threonine-protein kinase tousled-like 2 (Homo sapiens) (Q86UE8 whole entry, looked up): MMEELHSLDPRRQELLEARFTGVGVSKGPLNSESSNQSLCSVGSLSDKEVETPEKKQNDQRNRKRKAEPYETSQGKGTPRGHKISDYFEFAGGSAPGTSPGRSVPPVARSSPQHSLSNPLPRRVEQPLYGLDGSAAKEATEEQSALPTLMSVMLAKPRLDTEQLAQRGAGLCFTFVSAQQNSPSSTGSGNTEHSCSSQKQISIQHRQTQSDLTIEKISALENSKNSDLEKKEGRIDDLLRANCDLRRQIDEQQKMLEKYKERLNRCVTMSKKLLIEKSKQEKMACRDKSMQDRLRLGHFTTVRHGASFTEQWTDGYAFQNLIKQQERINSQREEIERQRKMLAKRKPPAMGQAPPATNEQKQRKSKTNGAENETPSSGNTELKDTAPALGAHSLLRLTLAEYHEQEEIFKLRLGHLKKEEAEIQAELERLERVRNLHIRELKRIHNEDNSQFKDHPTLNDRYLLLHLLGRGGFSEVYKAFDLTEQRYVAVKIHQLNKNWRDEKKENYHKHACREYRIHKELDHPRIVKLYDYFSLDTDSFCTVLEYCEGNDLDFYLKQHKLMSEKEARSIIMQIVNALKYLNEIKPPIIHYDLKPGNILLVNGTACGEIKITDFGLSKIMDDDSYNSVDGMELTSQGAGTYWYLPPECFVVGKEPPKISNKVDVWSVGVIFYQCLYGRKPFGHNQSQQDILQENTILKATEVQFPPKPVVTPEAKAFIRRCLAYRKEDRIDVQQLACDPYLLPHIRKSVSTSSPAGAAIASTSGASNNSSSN
Chain of Ribosomal protein S6 kinase alpha-5 (Homo sapiens) (O75582 whole entry, looked up, the tested form may be a part): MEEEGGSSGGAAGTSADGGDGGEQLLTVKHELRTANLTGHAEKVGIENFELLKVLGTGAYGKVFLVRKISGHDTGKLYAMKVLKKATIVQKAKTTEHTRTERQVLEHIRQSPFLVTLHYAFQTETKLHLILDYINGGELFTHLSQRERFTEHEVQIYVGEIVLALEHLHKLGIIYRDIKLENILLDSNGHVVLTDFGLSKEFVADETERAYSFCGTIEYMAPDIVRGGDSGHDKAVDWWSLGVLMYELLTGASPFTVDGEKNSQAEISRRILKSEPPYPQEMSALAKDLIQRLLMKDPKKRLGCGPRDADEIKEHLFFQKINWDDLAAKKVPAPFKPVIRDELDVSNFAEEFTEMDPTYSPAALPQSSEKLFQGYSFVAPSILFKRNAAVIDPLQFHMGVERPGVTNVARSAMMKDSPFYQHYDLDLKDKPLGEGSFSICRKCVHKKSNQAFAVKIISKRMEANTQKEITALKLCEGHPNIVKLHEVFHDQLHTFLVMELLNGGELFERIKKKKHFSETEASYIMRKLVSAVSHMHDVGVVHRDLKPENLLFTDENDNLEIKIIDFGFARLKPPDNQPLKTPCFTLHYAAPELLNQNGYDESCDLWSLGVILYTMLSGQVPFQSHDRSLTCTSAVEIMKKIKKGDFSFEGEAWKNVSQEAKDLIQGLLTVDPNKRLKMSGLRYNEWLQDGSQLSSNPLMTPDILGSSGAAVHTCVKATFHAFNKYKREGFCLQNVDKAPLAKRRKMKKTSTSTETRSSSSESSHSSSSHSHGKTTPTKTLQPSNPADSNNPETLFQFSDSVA
Chain of Mitogen-activated protein kinase kinase kinase kinase 5 (Homo sapiens) (Q9Y4K4 whole entry, looked up): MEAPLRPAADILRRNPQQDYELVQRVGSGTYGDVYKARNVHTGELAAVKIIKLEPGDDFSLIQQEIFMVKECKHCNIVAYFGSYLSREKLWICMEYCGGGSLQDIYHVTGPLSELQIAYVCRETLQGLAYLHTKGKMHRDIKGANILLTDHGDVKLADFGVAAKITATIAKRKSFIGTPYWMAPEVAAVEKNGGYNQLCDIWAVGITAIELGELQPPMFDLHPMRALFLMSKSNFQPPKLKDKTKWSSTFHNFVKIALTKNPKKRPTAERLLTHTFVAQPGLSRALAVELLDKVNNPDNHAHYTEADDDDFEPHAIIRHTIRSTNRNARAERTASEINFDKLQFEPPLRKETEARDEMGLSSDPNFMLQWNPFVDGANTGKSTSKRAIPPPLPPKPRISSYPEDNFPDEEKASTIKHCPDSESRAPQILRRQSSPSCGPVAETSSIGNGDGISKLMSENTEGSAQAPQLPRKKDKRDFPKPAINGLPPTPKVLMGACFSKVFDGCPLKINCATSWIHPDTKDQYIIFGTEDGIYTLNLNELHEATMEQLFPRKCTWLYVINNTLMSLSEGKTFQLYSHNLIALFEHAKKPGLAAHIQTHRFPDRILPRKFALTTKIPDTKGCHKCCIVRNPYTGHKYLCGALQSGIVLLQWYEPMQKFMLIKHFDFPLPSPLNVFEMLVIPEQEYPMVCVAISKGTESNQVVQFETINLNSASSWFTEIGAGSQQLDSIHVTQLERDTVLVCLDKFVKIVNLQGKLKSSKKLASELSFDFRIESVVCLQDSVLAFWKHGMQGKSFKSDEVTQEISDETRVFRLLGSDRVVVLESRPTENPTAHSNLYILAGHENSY

## COc1cc2ncnc(N[C@H](C)c3cccc4ccccc34)c2cc1OC
[1]
  Activity: 73%
[2]
  Activity: 64%
[3]
  Activity: 100%
[4]
  Activity: 100%
[5]
  Activity: 93%
[6]
  Activity: 91%
[7]
  Activity: 87%
[8]
  Activity: 94%
[9]
  Activity: 100%

From ChEMBL document CHEMBL5678818, “Discovery of potent SOS1 inhibitors that block RAS activation via disruption of the RAS-SOS1 interaction” (Proc Natl Acad Sci U S A, 2019)
